From DBAASP come the findings set out here.

Some test systems named below: Escherichia coli MG1655; Acinetobacter baumannii; Klebsiella pneumoniae; Pseudomonas aeruginosa; Rhizoctonia solani; Trichoderma asperellum; Fusarium solani; Ramulariopsis gossypii; Fusarium oxysporum.
What all share (test): ≥ marks a high value that may be exact or a test limit, other limits are often not marked, values filed in µg/mL are converted to µM
The test system of assay [1] is Escherichia coli ATCC 25922.
Assay [2] has as its system Candida albicans NCTC 3179.
The subject of assay [3] is Staphylococcus aureus ATCC 25923.
For assay [4], the system named is Staphylococcus aureus ATCC 33592.
For assay [5], the system named is Candida albicans ATCC 18804.
Assay [6] relates to Staphylococcus aureus 1D00101.
Assay [7] deals with Vibrio vulnificus 1H00066.
For assay [8], the system named is Micrococcus luteus 1D00051.
In assay [9] the test system is Klebsiella pneumoniae ATCC 13883.
The test system of assay [10] is Bacillus subtilis ATCC 6051.
Assay [11] relates to Staphylococcus aureus ATCC 43300.
For assay [12], the system named is Pseudomonas aeruginosa ATCC 27853.
Assay [13] deals with Candida albicans ATCC 90028.
Assay [14] concerns Cryptococcus neoformans ATCC 208821.
Assay [15] deals with Klebsiella pneumoniae ATCC 700603.
In assay [16] the test system is Klebsiella pneumoniae ATCC BAA-2146.
For assay [17], the system named is Acinetobacter baumannii ATCC 19606.
Assay [18] relates to Cryptococcus neoformans ATCC 28957.
The subject of assay [19] is Bacillus cereus ATCC 14579.
The test system of assay [20] is Xanthomonas campestris pv. citri.
Assay [21] relates to Pectobacterium carotovorum.
The test system of assay [22] is Fusarium oxysporum f.sp. vasinfectum.
Assay [23] concerns Bacillus subtilis ATCC 23857.
For assay [24], the system named is Pseudomonas syringae pv. tabaci.
The subject of assay [25] is Acinetobacter baumannii KCCM 40203.
Assay [26] concerns Enterococcus faecalis KCCM 29212.
Assay [27] concerns Pseudomonas aeruginosa CCARM 2180.
The subject of assay [28] is Enterococcus faecalis KCCM 11814.
Assay [29] deals with Trichosporon beigelii KCTC 7707.
The subject of assay [30] is Acinetobacter baumannii ATCC BAA-1605.
Assay [31] has as its system Bacillus subtilis KCTC 3068.
The subject of assay [32] is Enterococcus faecium KCCM 12118.
Assay [33] relates to Salmonella typhimurium KCTC 1926.
Assay [34] relates to Escherichia coli KCTC 1682.
Assay [35] has as its system Staphylococcus epidermidis KCTC 1917.
The test system of assay [36] is Malassezia furfur KCTC 7744.
Assay [37] concerns Candida parapsilosis ATCC 22019.
Assay [38] deals with Enterococcus faecium ATCC 51559.

In brackets after ≈: the same amount, converted by molar mass.

As for `CC[C@H](C)[C@H](NC(=O)[C@H](C)NC(=O)[C@H](CC(=O)O)NC(=O)[C@H](CC(C)C)NC(=O)[C@H](CC(N)=O)NC(=O)[C@H](C)N)C(=O)N[C@H](C(=O)N[C@@H](CCCCN)C(=O)N[C@H](C(=O)N[C@@H](CCC(N)=O)C(=O)N[C@@H](C)C(=O)N[C@@H](Cc1c[nH]c2ccccc12)C(=O)N[C@@H](C)C(=O)N[C@@H](CCCN=C(N)N)C(=O)N[C@@H](CCSC)C(=O)N[C@@H](Cc1c[nH]c2ccccc12)C(=O)N[C@@H](C)C(=O)N[C@@H](C)C(=O)N[C@@H](CCCN=C(N)N)C(=O)N[C@@H](CCCN=C(N)N)C(=O)N[C@@H](CCC(N)=O)C(=O)N[C@@H](Cc1ccc(O)cc1)C(=O)N[C@@H](CC(C)C)C(=O)O)[C@@H](C)CC)[C@@H](C)CC` [ANLDAIIKIQAWARMWAARRQYL], the figures for the MIC in assay [1], in assay [2] and in assay [3] were 2.03 µM (≈ 5.6 µg/mL), at least 90.6 µM and 11.2 µM (≈ 31 µg/mL), respectively.
Regarding `CC[C@H](C)[C@H](NC(C)=O)C(=O)N[C@@H](CCCCN)C(=O)N[C@@H](CCCN=C(N)N)C(=O)N[C@@H](CC(C)C)C(=O)N[C@@H](CC(N)=O)C(=O)N[C@@H](CO)C(=O)N[C@@H](Cc1c[nH]c2ccccc12)C(=O)N[C@@H](CC(C)C)C(=O)N[C@@H](CCCN=C(N)N)C(=O)N[C@@H](CCCCN)C(N)=O` [IKRLNSWLRK], the values for the MIC (against Escherichia coli MG1655; in assay [4]; in assay [5]) were at least 64 µM, at least 128 µM and at least 128 µM, respectively.
With `CC[C@H](C)[C@H](NC(=O)[C@H](CCCN=C(N)N)NC(=O)[C@@H](NC(=O)[C@H](CCSC)NC(=O)[C@@H]1CCCN1C(=O)CNC(=O)[C@H](Cc1cnc[nH]1)NC(=O)[C@@H](NC(=O)[C@H](CCCCN)NC(=O)[C@H](CCCN=C(N)N)NC(=O)[C@H](CCCN=C(N)N)NC(=O)[C@H](CCCN=C(N)N)NC(=O)[C@H](CS)NC(=O)[C@@H](N)CCCCN)C(C)C)[C@@H](C)CC)C(=O)N[C@@H](CCCN=C(N)N)C(=O)N[C@@H](CCCCN)C(=O)N[C@@H](CCCCN)C(=O)O` [KCRRRKVHGPMIRIRKK], the values for the MIC in assay [6], in assay [7] and in assay [8] were 4 µM (≈ 8.65 µg/mL), at least 80 µM and 9 µM (≈ 19.5 µg/mL), respectively.
Turning to `CC[C@H](C)[C@@H]1NC(=O)CNC(=O)[C@H](CCCN=C(N)N)NC(=O)CNC(=O)[C@@H]2CSSC[C@H](NC1=O)C(=O)N[C@@H](Cc1ccc(O)cc1)C(=O)N[C@@H](CCCN=C(N)N)C(=O)N[C@@H](CCCN=C(N)N)C(=O)N[C@H](C(=O)N[C@@H](CCCN=C(N)N)C(=O)O)CSSC[C@H](NC(=O)[C@H](Cc1c[nH]c3ccccc13)NC(=O)[C@@H](N)CCCCN)C(=O)N[C@@H](Cc1ccccc1)C(=O)N[C@@H](CCCN=C(N)N)C(=O)N[C@@H](C(C)C)C(=O)N2` [KWCFRVCGRGICYRRCR], the MIC (in general, the least concentration at which growth counts as inhibited) was found to be 0.231 µM (≈ 0.499 µg/mL) in assay [1]; 0.925 µM (≈ 2 µg/mL) in assay [9]; 0.925 µM (≈ 2 µg/mL) against Acinetobacter baumannii; 0.231 µM (≈ 0.499 µg/mL) in assay [10]; 7.4 µM (≈ 16 µg/mL) in assay [11]; 3.7 µM (≈ 7.99 µg/mL) in [12]. Moreover, the MIC with Klebsiella pneumoniae was above 7.4 µM; in assay [13] it was 7.4 µM (≈ 16 µg/mL); in the assay on Pseudomonas aeruginosa, 7.4 µM (≈ 16 µg/mL); in [14], 1.85 µM (≈ 3.99 µg/mL); in [15], 3.7 µM (≈ 7.99 µg/mL); in assay [16], 3.7 µM (≈ 7.99 µg/mL). The same compound gave a minimal inhibitory concentration (MIC) in assay [17] of 0.462 µM (≈ 0.998 µg/mL).
On to `CC(C)C[C@H](NC(=O)[C@H](C)NC(=O)[C@H](C)NC(=O)[C@@H](NC(=O)[C@H](CC(C)C)NC(=O)[C@H](CCCCN)NC(=O)[C@@H](NC(=O)[C@H](CC(C)C)NC(=O)[C@H](CCCN=C(N)N)NC(=O)[C@H](Cc1cnc[nH]1)NC(=O)[C@@H](N)CC(C)C)C(C)C)C(C)C)C(=O)N[C@@H](CC(C)C)C(=O)N[C@@H](CCCN=C(N)N)C(=O)NCC(=O)N[C@@H](Cc1ccc(O)cc1)C(=O)N[C@@H](C)C(=O)N[C@@H](CO)C(=O)N[C@@H](CCCCN)C(=O)N[C@H](C(=O)N[C@@H](CC(=O)O)C(=O)N[C@H](C(=O)N[C@@H](Cc1cnc[nH]1)C(N)=O)[C@@H](C)O)C(C)C` [LHRLVKLVAALLRGYASKVDTH], for which the minimum inhibitory concentration (MIC) is 8 µM (≈ 19.7 µg/mL) in assay [18]; 16 µM (≈ 39.4 µg/mL) against Rhizoctonia solani; 2 µM (≈ 4.92 µg/mL) in [1]; 16 µM (≈ 39.4 µg/mL) in the assay on Trichoderma asperellum; at least 32 µM in the assay on Fusarium solani; 6.67 µM (≈ 16.4 µg/mL) in assay [19]. Moreover, the MIC in [20] was 4 µM (≈ 9.84 µg/mL); in the assay on Ramulariopsis gossypii, 4 µM (≈ 9.84 µg/mL); in assay [21], 3.33 µM (≈ 8.19 µg/mL); in [22] it was 2 µM (≈ 4.92 µg/mL); in [12] it was 4 µM (≈ 9.84 µg/mL); in [23] it was 2 µM (≈ 4.92 µg/mL). For the same compound, the minimal inhibitory concentration (MIC) with Fusarium oxysporum is at least 32 µM; in assay [13], 4 µM (≈ 9.84 µg/mL); in assay [24] it was 4 µM (≈ 9.84 µg/mL); in assay [3], 2 µM (≈ 4.92 µg/mL).
As for `CC[C@H](C)[C@H](NC(=O)[C@H](Cc1c[nH]c2ccccc12)NC(=O)[C@H](CC(C)C)NC(=O)[C@@H](N)CC(C)C)C(=O)N[C@@H](C)C(=O)N[C@@H](CC(C)C)C(=O)N[C@@H](CCCN=C(N)N)C(=O)N[C@@H](CCCCN)C(=O)N[C@@H](CCCCN)C(N)=O` [LLWIALRKK], the MIC was at least 80 µM in [25]; 7.01 µM (≈ 7.99 µg/mL) in assay [26]; at least 80 µM in assay [27]; at least 80 µM in assay [28]; 1.32 µM (≈ 1.5 µg/mL) in assay [29]; at least 80 µM in assay [30]. In addition, the MIC came out at 3.51 µM (≈ 4 µg/mL) in [31]; 7.01 µM (≈ 7.99 µg/mL) in assay [32]; 3.51 µM (≈ 4 µg/mL) in assay [33]; 3.51 µM (≈ 4 µg/mL) in assay [34]; 0.614 µM (≈ 0.699 µg/mL) in [13]; 3.51 µM (≈ 4 µg/mL) in [35]. Moreover, the figures for the MIC in assay [36], in assay [37] and in assay [38] were 0.614 µM (≈ 0.699 µg/mL), 0.614 µM (≈ 0.699 µg/mL) and 1.75 µM (≈ 2 µg/mL), respectively.
